Values joined by “and” are separate entries in the source; they are usually repeats but may differ in a detail not shown here. Equal entries are not always repeated.
These compounds were tested against T1, GRK2 (Homo sapiens, UniProt P25098) (assay: biochemical). Settings: GRK2 IC50 (μM), 10 nM GRK2; 10 uM ATP.
T1 sequence (P25098 1-689): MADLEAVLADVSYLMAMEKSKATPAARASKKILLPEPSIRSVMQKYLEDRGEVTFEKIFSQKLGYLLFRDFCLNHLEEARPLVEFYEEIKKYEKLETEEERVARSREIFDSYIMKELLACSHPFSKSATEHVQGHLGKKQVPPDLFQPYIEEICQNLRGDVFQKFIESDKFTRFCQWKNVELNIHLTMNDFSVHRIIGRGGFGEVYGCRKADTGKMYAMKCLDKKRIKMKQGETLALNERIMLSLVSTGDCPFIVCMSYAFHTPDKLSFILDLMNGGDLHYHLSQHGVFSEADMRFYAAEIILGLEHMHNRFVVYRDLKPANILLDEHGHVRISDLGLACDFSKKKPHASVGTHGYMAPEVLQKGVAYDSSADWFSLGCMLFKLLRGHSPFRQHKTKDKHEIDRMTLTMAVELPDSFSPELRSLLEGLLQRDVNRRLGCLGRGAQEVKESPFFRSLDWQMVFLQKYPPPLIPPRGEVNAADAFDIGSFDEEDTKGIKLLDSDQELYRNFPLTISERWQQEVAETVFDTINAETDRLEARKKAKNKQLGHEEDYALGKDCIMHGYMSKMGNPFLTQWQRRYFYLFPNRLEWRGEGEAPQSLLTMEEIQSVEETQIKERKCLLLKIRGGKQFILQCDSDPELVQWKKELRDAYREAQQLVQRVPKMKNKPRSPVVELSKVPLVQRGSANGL

SMILES	IC50
NS(=O)(=O)c1cccc(Cn2cnc3ccc(-c4cn[nH]c4)cc3c2=O)c1 [Compound 34, 3-[[4-Oxo-6-(1H-pyrazol-4-yl)quinazolin-3-yl]methyl]benzenesulfonamide]	0.03 µM
CCC(c1cccc(OC)c1)n1cnc2ccc(-c3cn[nH]c3)cc2c1=O (stereo not drawn) [Compound 35, 3-[1-(3-Methoxyphenyl)propyl]-6-(1H-pyrazol-4-yl)quinazolin-4-one]	0.122 µM
COc1cccc(Cn2cnc3ccc(-c4c[nH]nc4C)cc3c2=O)c1 [Compound 37, 3-[(3-Methoxyphenyl)methyl]-6-(3-methyl-1H-pyrazol-4-yl)quinazolin-4-one]	0.066 µM
COc1cccc(Cn2cnc3ccc(-n4cn[nH]c4=O)cc3c2=O)c1 [Compound 38, 3-[(3-Methoxyphenyl)methyl]-6-(5-oxo-1H-1,2,4-triazol-4-yl)quinazolin-4-one]	0.129 µM
COc1cccc([C@@H](C)n2cnc3ccc(-c4cn[nH]c4)cc3c2=O)c1 [Compound 39, 3-[(1R)-1-(3-Methoxyphenyl)ethyl]-6-(1H-pyrazol-4-yl)quinazolin-4-one]	0.009 µM and 0.017 µM
COc1ccc(F)cc1Cn1cnc2ccc(-c3cn[nH]c3)cc2c1=O [Compound 40, 3-[(5-Fluoro-2-methoxy-phenyl)methyl]-6-(1H-pyrazol-4-yl)quinazolin-4-one]	1.72 µM
CC(=O)c1cccc(Cn2cnc3ccc(-c4cn[nH]c4)cc3c2=O)c1 [Compound 41, 3-[(3-Acetylphenyl)methyl]-6-(1H-pyrazol-4-yl)quinazolin-4-one]	0.065 µM
COc1cccc(C(CO)n2cnc3ccc(-c4cn[nH]c4)cc3c2=O)c1 (stereo not drawn) [Compound 42, 3-[2-Hydroxy-1-(3-methoxyphenyl)ethyl]-6-(1H-pyrazol-4-yl)quinazolin-4-one]	0.025 µM
COc1cccc(Cn2cnc3ccc(-c4c[nH]c5ncccc45)cc3c2=O)c1 [Compound 43, 3-[(3-Methoxyphenyl)methyl]-6-(1H-pyrrolo[2,3-b]pyridin-3-yl)quinazolin-4-one]	0.757 µM
COc1cccc(Cn2cnc3ccc(-c4cn[nH]n4)cc3c2=O)c1 [Compound 44, 3-[(3-Methoxyphenyl)methyl]-6-(2H-triazol-4-yl)quinazolin-4-one]	0.1 µM
COc1cccc(Cn2cnc3ccc(-c4ccnc(N)n4)cc3c2=O)c1 [Compound 45, 6-(2-Aminopyrimidin-4-yl)-3-[(3-methoxyphenyl)methyl]quinazolin-4-one]	0.271 µM
COc1cccc(Cn2cnc3ccc(-c4cn[nH]c(=O)c4)cc3c2=O)c1 [Compound 46, 3-[(3-Methoxyphenyl)methyl]-6-(6-oxo-1H-pyridazin-4-yl)quinazolin-4-one]	1.46 µM
COc1cccc(Cn2cnc3ccc(-c4nn[nH]n4)cc3c2=O)c1 [Compound 48, 3-[(3-Methoxyphenyl)methyl]-6-(2H-tetrazol-5-yl)quinazolin-4-one]	> 50 µM
O=c1c2cc(-c3cccnc3)ccc2ncn1Cc1cccc(Cl)c1 [Compound 49, 3-[(3-Chlorophenyl)methyl]-6-(3-pyridyl)quinazolin-4-one]	> 50 µM
O=c1c2cc(-c3cn[nH]c3)ccc2ncn1Cc1cccc(Cl)c1 [Compound 50, 3-[(3-Chlorophenyl)methyl]-6-(1H-pyrazol-4-yl)quinazolin-4-one]	0.075 µM
COc1cccc(Cn2cnc3ccc(-c4cnc(N)nc4)cc3c2=O)c1 [Compound 52, 6-(2-Aminopyrimidin-5-yl)-3-(3-methoxybenzyl)quinazolin-4(3H)-one]	> 19 µM
COc1cccc(Cn2cnc3ccc(-c4ccnc5[nH]ccc45)cc3c2=O)c1 [Compound 53, 3-[(3-Methoxyphenyl)methyl]-6-(1H-pyrrolo[2,3-b]pyridin-4-yl)quinazolin-4-one]	2.45 µM

Next, values leading:

IC50	SMILES
12.3 µM	COc1cc(Cn2cnc3ccc(-c4ccnc5[nH]ccc45)cc3c2=O)ccc1F [Compound 54, 3-[(4-Fluoro-3-methoxy-phenyl)methyl]-6-(1H-pyrrolo[2,3-b]pyridin-4-yl)quinazolin-4-one]
0.014 µM	NC1CCN(c2nc3ccc(-c4cn[nH]c4)cc3c(=O)n2Cc2cccc(C(=O)NCc3ccc(F)cc3)c2)C1 (stereo not drawn) [Compound 55, 3-[[2-(3-Aminopyrrolidin-1-yl)-4-oxo-6-(1H-pyrazol-4-yl)quinazolin-3-yl]methyl]-N-[(4-fluorophenyl)methyl]benzamide]
< 0.01 µM	O=C(NCc1ccc(F)cc1)c1cccc(Cn2cnc3ccc(-c4cn[nH]c4)c(F)c3c2=O)c1 [Compound 57, 3-[[5-Fluoro-4-oxo-6-(1H-pyrazol-4-yl)quinazolin-3-yl]methyl]-N-[(4-fluorophenyl)methyl]benzamide]
0.007 µM	CC(c1cccc(C(=O)NCc2ccc(F)cc2)c1)n1cnc2ccc(-c3cn[nH]c3)cc2c1=O (stereo not drawn) [Compound 61, N-[(4-Fluorophenyl)methyl]-3-[1-[4-oxo-6-(1H-pyrazol-4-yl)quinazolin-3-yl]ethyl]benzamide]
0.065 µM	O=c1c2cc(-c3cn[nH]c3)ccc2ncn1Cc1cccc(OCc2ccccc2)c1 [Compound 63, 3-[(3-Benzyloxyphenyl)methyl]-6-(1H-pyrazol-4-yl)quinazolin-4-one]
22.2 µM	O=c1c2cc(-c3cn[nH]c3)ccc2ncn1Cc1cccc(OC(F)(F)F)c1 [Compound 66, 6-(1H-Pyrazol-4-yl)-3-[[3-(trifluoromethoxy)phenyl]methyl]quinazolin-4-one]
< 0.01 µM	O=C(NCc1c(F)cccc1F)c1cc(F)cc(Cn2cnc3ccc(-c4cn[nH]c4)cc3c2=O)c1 [Compound 72, N-(2,6-Difluorobenzyl)-3-fluoro-5-((4-oxo-6-(1H-pyrazol-4-yl)quinazolin-3(4H)-yl)methyl)benzamide]
> 20 µM	O=c1c2cc(-c3c[nH]nc3C(F)(F)F)ccc2ncn1Cc1c(F)cccc1F [Compound 77, 3-[(2,6-Difluorophenyl)methyl]-6-[3-(trifluoromethyl)-1H-pyrazol-4-yl]quinazolin-4-one]
0.801 µM	O=c1c2cc(-c3cn[nH]c3)ccc2ncn1Cc1c(F)cccc1F [Compound 78, 3-[(2,6-Difluorophenyl)methyl]-6-(1H-pyrazol-4-yl)quinazolin-4-one]
> 100 µM	O=c1c2cc(-c3ccc(F)nc3)ccc2ncn1Cc1ccccc1 [Compound 82, 3-Benzyl-6-(6-fluoro-3-pyridyl)quinazolin-4-one]
1.63 µM	O=C(NCc1ccc(F)cc1)c1cccc(-n2cnc3ccc(-c4cn[nH]c4)cc3c2=O)c1 [Compound C1, N-[(4-Fluorophenyl)methyl]-3-[4-oxo-6-(1H-pyrazol-4-yl)quinazolin-3-yl]benzamide]
4.34 µM	O=C(NCc1ccc(F)cc1F)c1ccc(Cn2cnc3ccc(-c4cn[nH]c4)cc3c2=O)cc1 [Compound C2, N-[(2,4-Difluorophenyl)methyl]-4-[[4-oxo-6-(1H-pyrazol-4-yl)quinazolin-3-yl]methyl]benzamide]
~20 µM	O=C(NCc1c(F)cccc1F)c1ccc(Cn2cnc3ccc(-c4cn[nH]c4)cc3c2=O)cc1 [Compound C3, N-[(2,6-Difluorophenyl)methyl]-4-[[4-oxo-6-(1H-pyrazol-4-yl)quinazolin-3-yl]methyl]benzamide]
0.093 µM	O=c1c2cc(-c3cn[nH]c3)ccc2ncn1Cc1cccc2c1OCO2 [Compound C4, 3-(1,3-Benzodioxol-4-ylmethyl)-6-(1H-pyrazol-4-yl)quinazolin-4-one]
0.212 µM	O=C(NCc1ccc(F)cc1)c1cc(Cn2cnc3ccc(-c4cn[nH]c4)cc3c2=O)ccn1 [Compound C5, N-[(4-Fluorophenyl)methyl]-4-[[4-oxo-6-(1H-pyrazol-4-yl)quinazolin-3-yl]methyl]pyridine-2-carboxamide]
> 50 µM	COCCNc1nccc(-c2ccc3ncn(Cc4cccc(OC)c4)c(=O)c3c2)n1 [Compound C6, 6-[2-(2-Methoxyethylamino)pyrimidin-4-yl]-3-[(3-methoxyphenyl)methyl]quinazolin-4-one]

— patent US20220267298A1 (priority 2019, published 2022)
